Source: ChEMBL document CHEMBL1134216, “Synthesis, modelling and NK1 antagonist evaluation of a non-rigid cyclopropane-containing analogue of CP-99,994” (Bioorg Med Chem Lett, 2001)

Target: Substance-P receptor (Homo sapiens, UniProt P25103)
Experiment: Binding affinity towards Tachykinin receptor 1 expressed in CHO cells using [3H][Pro9]-SP as radioligand
Assay type: cell-based

Sequence of Substance-P receptor (P25103 whole entry): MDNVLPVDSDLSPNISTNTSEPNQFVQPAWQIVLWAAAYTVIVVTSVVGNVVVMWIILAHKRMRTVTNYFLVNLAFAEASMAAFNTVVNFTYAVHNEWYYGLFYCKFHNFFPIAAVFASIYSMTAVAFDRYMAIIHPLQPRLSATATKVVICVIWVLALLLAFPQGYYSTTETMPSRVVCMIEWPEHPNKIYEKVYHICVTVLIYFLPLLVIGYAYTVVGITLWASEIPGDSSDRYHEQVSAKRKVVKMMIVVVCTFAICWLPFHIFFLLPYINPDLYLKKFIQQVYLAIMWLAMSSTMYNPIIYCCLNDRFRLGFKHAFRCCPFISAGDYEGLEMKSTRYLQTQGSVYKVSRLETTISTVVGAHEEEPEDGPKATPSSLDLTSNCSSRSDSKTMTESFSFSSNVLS

Ki [nM] | SMILES
620 | CNC(c1ccccc1)C1(NCc2cc(C(F)(F)F)cc(C(F)(F)F)c2)CC1 (racemic)
150 | CNC(c1ccccc1)C1(NCc2ccccc2OC)CC1 (configuration not stated)
